# What was measured:
# RKO [1] = assay: Antiproliferative activity against human RKO cells assessed as reduction in cell growth measured for 48 hrs by MTT assay; type: functional, cell-based; conditions: pooled result: one value given for 6 cell lines, strains, targets or settings
# HCT-116 = assay: Antiproliferative activity against human HCT-116 cells assessed as reduction in cell viability incubated for 48 hrs by MTT assay; type: functional, cell-based; conditions: HCT-116, 48 h
# MDA-MB-231 [2] = assay: Antiproliferative activity against human MDA-MB-231 cells assessed as reduction in cell viability incubated for 48 hrs by MTT assay; type: functional, cell-based; conditions: MDA-MB-231, 48 h
# HeLa = assay: Antiproliferative activity against human HeLa cells assessed as reduction in cell viability incubated for 48 hrs by MTT assay; type: functional, cell-based
# RKO [3] = assay: Antiproliferative activity against human RKO cells assessed as reduction in cell viability incubated for 48 hrs by MTT assay; type: functional, cell-based
# A549 = assay: Antiproliferative activity against human A549 cells assessed as reduction in cell viability incubated for 48 hrs by MTT assay; type: functional, cell-based; conditions: A549, 48 h
# HepG2 = assay: Antiproliferative activity against human HepG2 cells assessed as reduction in cell viability incubated for 48 hrs by MTT assay; type: functional, cell-based; conditions: HepG2, 48 h
# NCI/ADR-RES = assay: Antiproliferative activity against human MCF7ADR cells assessed as reduction in cell viability incubated for 72 hrs by MTT assay; type: functional, cell-based
# MCF7 = assay: Antiproliferative activity against human MCF7 cells assessed as reduction in cell viability incubated for 72 hrs by MTT assay; type: functional, cell-based; conditions: MCF7, 72 h
# [4] = Antiproliferative activity against human MCF-10A cells assessed as reduction in cell viability incubated for 72 hrs by MTT assay; type: toxicity, cell-based
# MDA-MB-231 [5] = assay: Antiproliferative activity against human MDA-MB-231 cells assessed as reduction in cell viability incubated for 72 hrs by MTT assay; type: functional, cell-based; conditions: MDA-MB-231, 72 h
# KB = assay: Antiproliferative activity against human KB cells assessed as reduction in cell viability by MTT assay; type: functional, cell-based
# SGC-7901 = assay: Antiproliferative activity against human SGC-7901 cells assessed as reduction in cell viability by MTT assay; type: functional, cell-based
# HT-1080 = assay: Antiproliferative activity against human HT-1080 cells assessed as reduction in cell viability by MTT assay; type: functional, cell-based
smiles,measurement,setting,value
COc1nc(N(C)c2ccc([Se]C)cc2)c2ccccc2n1,IC50,RKO [1],4.78 nM
C[Se]c1ccc(N(C)c2nc(Cl)nc3ccccc23)cc1,IC50,RKO [1],2.77 nM
Cc1cc(N(C)c2nc(Cl)nc3ccccc23)ccc1[Se]C#N,IC50,RKO [1],6.01 nM
COc1cc(C(=O)/C=C/c2c[nH]c3ccccc23)cc([Se]C)c1OC,IC50,HCT-116,29 nM
same,IC50,MDA-MB-231 [2],29 nM
same,IC50,HeLa,29 nM
same,IC50,RKO [3],29 nM
same,IC50,A549,29 nM
same,IC50,HepG2,29 nM
COc1ccc([Se](=O)c2cc(OC)c(OC)c(OC)c2)cc1O (stereo not given),IC50,NCI/ADR-RES,26.3 nM
same,IC50,MCF7,25 nM
same,IC50 at 72 h,[4],131 nM
same,IC50,MDA-MB-231 [5],6.3 nM
C[Se]c1ccc(N(C)c2nc(=O)[nH]c3ccccc23)cc1,IC50,RKO [1],17.4 nM
COc1ccc([Se]c2c[nH]c3c(OC)c(OC)c(OC)cc23)cc1O,IC50,KB,640 nM
same,IC50,SGC-7901,220 nM
same,IC50,HT-1080,1000 nM
COc1ccc(/C=C\c2cc(OC)c(OC)c(OC)c2)cc1O [COMBRETASTATIN A4],IC50,KB,4 nM
same,IC50,SGC-7901,11 nM
same,IC50,HT-1080,11 nM
CN(c1ccc([Se]C#N)cc1)c1nc(Cl)nc2ccccc12,IC50,RKO [1],3.39 nM
COc1ccc([Se]c2c(C)[nH]c3c(OC)c(OC)c(OC)cc23)cc1O,IC50,KB,25 nM
same,IC50,SGC-7901,54 nM
same,IC50,HT-1080,14 nM
Cc1cc([Se]C#N)ccc1N(C)c1nc(Cl)nc2ccccc12,IC50,RKO [1],37.9 nM
